Consider one molecule from US20110105436A1, “HETEROARYL COMPOUNDS, COMPOSITIONS, AND METHODS OF USE IN CANCER TREATMENT” (AUCKLAND UNISERVICES LIMITED, priority 2008, published 2011).

Data set [1] deals with RCC4, RCC4/VHL, SN12C and SN12C-VHL shRNA cells. Description: Clonogenic cell survival assay. Type of data set: cell-based. Here is the method:
Clonogenic Cell Survival Assay. RCC4, RCC4/VHL, SN12C and SN12C-VHL shRNA were plated at 300 cells per 60 mm tissue culture dish. The following day, vehicle or STF-62247 was added and cells were incubated in the presence of drug for 10 days in RCC4 and RCC4/VHL and 7-10 days for SN12C and SN12C-VHL shRNA. The colonies were stained with crystal violet, and quantified. Each experiment was performed at least three times in triplicate.
A. RCC4 and RCC4/VHL cells were labeled with EYFP and the effect of STF-62247 was monitored by fluorescence in each cell type separately. Cells are pseudocolored. B. Clonogenic assay in RCC4, RCC4/VHL, SN12C, SN12C-VHL shRNA cells in the presence of STF-62247 (0-30 μM). Each point of the cell survival is calculated by the average of three different experiments in triplicate as the percent of treated on untreated plate. The error bars represented the standard error of the mean (SEM). C. Upper Panel, clonogenic assay in RCC4 infected with HIF-1α or HIF-2α shRNA by retroviral infection in presence of drug in same conditions described above. Bottom panel, HIF-1α or HIF-2α protein expression evaluated by western blot in RCC4 cells with HIF-1α or HIF-2α shRNA. Tubulin is used as loading control. […] Tumor volume was measured every 2-3 days and data are represented in fold. Five tumors in each condition were analyzed where * p<0.05, **p<0.01 and ***p<0.005.

In another data set the test system is RCC4 and RCC4/VHL cells. Briefly: Apoptosis by Hoechst, Annexin V staining and caspase-3. Type of data set: cell-based. The following applies: in vitro, VHL-deficient cells, 1.25 μM; confirmed by caspase-3 in tumor sections. On the procedure:
(§1) B. XTT assay in RCC4 and RCC4/VHL in presence of STF-62247 (0-40 μM). Each point of the cell survival is calculated by the average of three different experiments in duplicate as the percent of treated on untreated plate. The error bars are represented as the standard error of the mean (SEM) C. qRT-PCR for Glutl, VEGF, PDF and PGK in RCC4 cells with or without HIF-1a, HIF-2a shRNA and in RCC4/VHL. D. Hoescht staining in RCC4 and RCC4/VHL cells with 1.25 μM of STF-62247 for 2 days. Camptothecin was used as positive control E. FACS analysis for apoptosis after an annexin V-FITC staining in presence or absence of propidium iodine (PI) in cells after a treatment in same conditions than in C. F. Immunoblot for active caspase-3 in RCC4 and RCC4/VHL following treatment with 1.25 μM of STF-62247 for 24 hours. Staurosporine was used as positive control (0.2 μM for 24 hours). G,H. Immunostaining of caspase-3 and Ki67 respectively in SN12C and SN12C+shVHL tumor samples untreated or treated with 30 μM of STF-62247.1. Immunoblot for p53 and SerlS phospho-p53 in RCC4 and RCC4/VHL cells after a treatment with 1.25 μM of STF-62247 or doxorubicin for 24 hours.

Data set [2] deals with SN12C and SN12C+shVHL tumor samples. Briefly: Ki67 immunostaining of tumor samples. It counts as in vivo, mice. The following applies: RCC deficient in VHL or with wild-type VHL, FIG. 7H. Here is the method:
as §1

The test system of the next data set is RCC4 cells. Briefly: XTT assay in VHL-deficient RCC4 cells. It counts as cell-based. In outline: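 RCC4 cells with and without VHL seeded at 5000/well, then exposed next day to serially diluted compound (DMSO vehicle) for four days. Viability read by XTT (0.3 mg/ml) with PMS, 1-2 h at 37° C, absorbance at 450 nm.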

For the molecule `Cc1cccc(Nc2nc(-c3ccncc3)cs2)c1` [Compound 5, N-(3-Methylphenyl)-4-(4-pyridinyl)-1,3-thiazol-2-amine], in data set [1] (RCC4 with HIF-1α or HIF-2α shRNA, RCC4/VHL with stable HIF-2α), the “dependence of cytotoxicity on HIF” value is “induces cytotoxicity in VHL-null cells in a HIF-independent manner”. Besides, in data set [1] (VHL-deficient versus VHL wild-type cells, 0-30 μM, FIG. 1B), the “selective toxicity in clonogenic assays” value is “selectively toxic to VHL-deficient cells compared to their VHL wild-type counterparts”. Further, in the data set with RCC4 and RCC4/VHL cells, the induction of apoptosis result is recorded as “did not induce apoptosis”. The “proliferation by Ki67 staining” value in data set [2] was “no difference in proliferation”. In the data set on RCC4 cells (Homo sapiens, 96 h, Table 1, XTT assay, VHL-deficient RCC4 cells, four days), this molecule registered a half-maximal inhibitory concentration (IC50) of 2100 nM. For the same molecule, the “viability in a short term assay” value in the data set with RCC4 cells (XTT, 0-40 μM, FIG. 7B) is recorded as “decreases the viability of VHL-deficient cells in a short term assay”.

Broadly, the IC50 is the concentration at which inhibition is half-maximal. Read a low IC50 as greater potency in that assay.
